Results as given in patent US20230183237A1, “COMPETITIVE AND NONCOMPETITIVE INHIBITORS OF THE MUSCARINIC ACETYLCHOLINE RECEPTOR M5” (Vanderbilt University, priority 2020, published 2023).

These molecules were tested against T1, hM5 (Homo sapiens, UniProt P08912) (assay: Calcium mobilization concentration-response (IC50 vs EC80 acetylcholine), CHO hM5). Conditions: CELL LINE hM5; calcium mobilization, EC80 acetylcholine addition; read-out: IC50.
T1 construct: expressed in transfected cells
T1 sequence (P08912 1-532): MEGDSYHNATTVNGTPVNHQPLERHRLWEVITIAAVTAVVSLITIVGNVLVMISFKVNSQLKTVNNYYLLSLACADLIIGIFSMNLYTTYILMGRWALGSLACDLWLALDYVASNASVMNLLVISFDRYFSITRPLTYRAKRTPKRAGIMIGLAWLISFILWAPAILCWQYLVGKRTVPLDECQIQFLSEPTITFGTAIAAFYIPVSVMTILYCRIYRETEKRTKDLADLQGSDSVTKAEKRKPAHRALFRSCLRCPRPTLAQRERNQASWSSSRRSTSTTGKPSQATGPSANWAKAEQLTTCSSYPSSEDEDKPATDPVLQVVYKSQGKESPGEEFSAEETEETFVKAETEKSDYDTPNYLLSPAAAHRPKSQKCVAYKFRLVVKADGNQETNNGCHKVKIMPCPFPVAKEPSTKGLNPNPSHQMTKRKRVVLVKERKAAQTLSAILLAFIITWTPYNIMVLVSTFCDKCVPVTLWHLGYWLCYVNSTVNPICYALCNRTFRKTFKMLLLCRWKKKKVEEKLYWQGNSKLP
Format: cell-based
Method in brief: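 CHO cells stably expressing hM5, dye-loaded, in HBSS/20 mM HEPES/2.5 mM probenecid, pH 7.4. Compounds were pre-incubated 140 s before an EC80 acetylcholine challenge, with calcium flux read kinetically.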

SMILES | IC50
Cc1c(S(=O)(=O)N2CCC(c3cn4ncnc4cc3-c3ccn(C)n3)CC2)cnn1C [Compound 332, 6-(1-((1,5-dimethyl-1H-pyrazol-4-yl)sulfonyl)piperidin-4-yl)-7-(1-methyl-1H-pyrazol-3-yl)-[1,2,4]triazolo[1,5-a]pyridine] | > 10000 nM
CCc1cc2ncnn2cc1C1CCN(S(=O)(=O)c2c(Cl)nn(C)c2C)CC1 [Compound 337, 6-(1-((3-chloro-1,5-dimethyl-1H-pyrazol-4-yl)sulfonyl)piperidin-4-yl)-7-ethyl-[1,2,4]triazolo[1,5-a]pyridine] | 37 nM
Cc1nc2cc(C)c(C3CCN(S(=O)(=O)c4cn(C)nc4C)CC3)cn2n1 [Compound 79, 6-(1-((1,3-dimethyl-1H-pyrazol-4-yl)sulfonyl)piperidin-4-yl)-2,7-dimethyl-[1,2,4]triazolo[1,5-a]pyridine] | > 10000 nM
Cc1sc(C#N)nc1C1CCN(S(=O)(=O)c2cnn(C)c2C)CC1 [Compound 225, 4-(1-((1,5-dimethyl-1H-pyrazol-4-yl)sulfonyl)piperidin-4-yl)-5-methylthiazole-2-carbonitrile] | > 10000 nM
CCc1cc2ncnn2cc1C1CCN(S(=O)(=O)c2c(Cl)nc3sccn23)CC1 [Compound 336, 6-chloro-5-((4-(7-ethyl-[1,2,4]triazolo[1,5-a]pyridin-6-yl)piperidin-1-yl)sulfonyl)imidazo[2,1-b]thiazole] | 106 nM
Cc1nn(C)c(Cl)c1S(=O)(=O)N1CCC(c2cn3ncnc3cc2C(F)(F)F)CC1 [Compound 275, 6-(1-((5-chloro-1,3-dimethyl-1H-pyrazol-4-yl)sulfonyl)piperidin-4-yl)-7-(trifluoromethyl)-[1,2,4]triazolo[1,5-a]pyridine] | 61 nM
Cn1cnc2cc(C3CCN(S(=O)(=O)c4ccc5ncsc5c4)CC3)ccc21 [Compound 8, 6-((4-(1-methyl-1-benzo[d]imidazol-5-yl)piperidin-1-yl)sulfonyl)benzo[d]thiazole] | > 10000 nM
Cc1cc2ncnn2cc1C1CCN(S(=O)(=O)c2c(C)nn(C)c2C(F)(F)F)C(C)C1 (centres unmarked) [Compound 362, 6-(1-((1,3-dimethyl-5-(trifluoromethyl)-1H-pyrazol-4-yl)sulfonyl)-2-methylpiperidin-4-yl)-7-methyl-[1,2,4]triazolo[1,5-a]pyridine] | > 10000 nM
O=S(=O)(c1ccc2c(c1)CCO2)N1CCC(c2cc3cnccc3s2)CC1 [Compound 14, 2-(1-((2,3-dihydrobenzofuran-5-yl)sulfonyl)piperidin-4-yl)thieno[3,2-c]pyridine] | > 10000 nM
O=S(=O)(c1cnc2n1CCCC2)N1CCC(c2cn3ncnc3cc2F)CC1 [Compound 326, 7-fluoro-6-(1-((5,6,7,8-tetrahydroimidazo[1,2-a]pyridin-3-yl)sulfonyl)piperidin-4-yl)-[1,2,4]triazolo[1,5-a]pyridine] | 99 nM
Cc1cc2ncnn2cc1C1=CCN(S(=O)(=O)c2ccc3c(c2)CC(C)O3)CC1 (centres unmarked) [Compound 49, 7-methyl-6-(1-((2-methyl-2,3-dihydrobenzofuran-5-yl)sulfonyl)-1,2,3,6-tetrahydropyridin-4-yl)-[1,2,4]triazolo[1,5-a]pyridine] | > 10000 nM
Cc1cc2ncnn2cc1C1CCN(S(=O)(=O)c2ccc3ncn(C)c3c2)CC1 [Compound 188, 7-methyl-6-(1-((1-methyl-1H-benzo[d]imidazol-6-yl)sulfonyl)piperidin-4-yl)-[1,2,4]triazolo[1,5-a]pyridine] | 105 nM
Cc1cc2nccn2nc1C1CCN(S(=O)(=O)c2ccc(Cl)s2)CC1 [Compound 37, 6-(1-((5-chlorothiophen-2-yl)sulfonyl)piperidin-4-yl)-7-methylimidazo[1,2-b]pyridazine] | > 10000 nM
O=S(=O)(c1ccc2ncccc2c1)N1CCC(c2cc3[nH]ccc3cn2)CC1 [Compound 31, 6-((4-(1H-pyrrolo[3,2-c]pyridin-6-yl)piperidin-1-yl)sulfonyl)quinoline] | > 10000 nM
Cc1cc2ncnn2cc1C1CCN(S(=O)(=O)c2ccc3c(cnn3C)c2)CC1 [Compound 175, 7-methyl-6-(1-((1-methyl-1H-indazol-5-yl)sulfonyl)piperidin-4-yl)-[1,2,4]triazoto[1,5-a]pyridine] | > 10000 nM
Cc1c(S(=O)(=O)N2CCC(c3cn4ncnc4cc3C(F)(F)F)CC2)c(Cl)nn1C [Compound 341, 6-(1-((3-chloro-1,5-dimethyl-1H-pyrazol-4-yl)sulfonyl)piperidin-4-yl)-7-(trifluoromethyl)-[1,2,4]triazolo[1,5-a]pyridine] | 113 nM
Cc1nn(C)c(Cl)c1S(=O)(=O)N1CCC(c2cn3ncnc3c(F)c2C)CC1 [Compound 318, 6-(1-((5-chloro-1,3-dimethyl-1H-pyrazol-4-yl)sulfonyl)piperidin-4-yl)-8-fluoro-7-methyl-[1,2,4]triazolo[1,5-a]pyridine] | 15 nM
Cc1cc2ncnn2nc1C1=CCN(S(=O)(=O)c2ccc3c(c2)CCO3)CC1 [Compound 167, 6-(1-((2,3-dihydrobenzofuran-5-yl)sulfonyl)-1,2,3,6-tetrahydropyridin-4-yl)-7-methyl-[1,2,4]triazolo[1,5-b]pyridazine] | > 10000 nM
Cc1cc(S(=O)(=O)N2CCC(c3nn4ccnc4cc3C)CC2)c(C)s1 [Compound 311, 6-(1-((2,5-dimethylthiophen-3-yl)sulfonyl)piperidin-4-yl)-7-methylimidazo[1,2-b]pyridazine] | 4900 nM
Cc1cc2nc(C(F)F)nn2cc1C1=CCN(S(=O)(=O)c2cnn3c2CCCC3)CC1 [Compound 316, 2-(difluoromethyl)-7-methyl-6-(1-((4,5,6,7-tetrahydropyrazolo[1,5-a]pyridin-3-yl)sulfonyl)-1,2,3,6-tetrahydropyridin-4-yl)-[1,2,4]triazolo[1,5-a]pyridine] | 1200 nM
Cc1nn(C)cc1S(=O)(=O)N1CCC(c2cn3ncnc3cc2C(F)(F)F)CC1 [Compound 113, 6-(1-((1,3-dimethyl-1H-pyrazol-4-yl)sulfonyl)piperidin-4-yl)-7-(trifluoromethyl)-[1,2,4]triazolo[1,5-a]pyridine] | 2400 nM

Same assay, conditions: CELL LINE hM5; vs EC80 acetylcholine; read-out: IC50

SMILES | IC50
Cc1cnccc1C1CCN(S(=O)(=O)c2cnn(C)c2Cl)CC1 [Compound 429, 4-(1-((5-chloro-1-methyl-1H-pyrazol-4-yl)sulfonyl)piperidin-4-yl)-3-methylpyridine] | 398 nM
O=S(=O)(c1cnn2c1OCCC2)N1CCC(F)(c2cn3ncnc3cc2F)CC1 [Compound 506, 3-((4-fluoro-4-(7-fluoro-[1,2,4]triazolo[1,5-a]pyridin-6-yl)piperidin-1-yl)sulfonyl)-6,7-dihydro-5H-pyrazolo[5,1-b][1,3]oxazine] | 946 nM
Cc1cc2ccnn2cc1C1CCN(S(=O)(=O)c2cnn(C)c2C#N)CC1 [Compound 481, 1-methyl-4-((4-(5-methylpyrazolo[1,5-a]pyridin-6-yl)piperidin-1-yl)sulfonyl)-1-pyrazole-5-carbonitrile] | 303 nM
Cc1cc(N(C)C)ncc1C1CCN(S(=O)(=O)c2cnn(C)c2Cl)CC1 [Compound 551, 5-(1-((5-chloro-1-methyl-1H-pyrazol-4-yl)sulfonyl)piperidin-4-yl)-N,N,4-trimethylpyridin-2-amine] | 7 nM
O=S(=O)(c1cnc(Cl)s1)N1CCC(c2cn3ncnc3cc2C(F)F)CC1 [Compound 516, 2-chloro-5-((4-(7-(difluoromethyl)-[1,2,4]triazolo[1,5-a]pyridin-6-yl)piperidin-1-yl)sulfonyl)thiazole] | 1700 nM
Cc1c(S(=O)(=O)N2CCC(F)(c3cn4ncnc4cc3F)CC2)cnn1C [Compound 501, 6-(1-((1,5-dimethyl-1H-pyrazol-4-yl)sulfonyl)-4-fluoropiperidin-4-yl)-7-fluoro-[1,2,4]triazolo[1,5-a]pyridine] | 2090 nM
Cc1ncc(S(=O)(=O)N2CCC(c3cn4ncnc4cc3C)CC2)o1 [Compound 492, 2-methyl-5-((4-(7-methyl-[1,2,4]triazolo[1,5-a]pyridin-6-yl)piperidin-1-yl)sulfonyl)oxazole] | 76 nM
[2H]C([2H])([2H])Oc1c(S(=O)(=O)N2CCC(c3cn4ncnc4cc3C)CC2)cnn1C [Compound 612, 6-(1-((5-(methoxy-d3)-1-methyl-1H-pyrazol-4-yl)sulfonyl)piperidin-4-yl)-7-methyl-[1,2,4]triazolo[1,5-a]pyridine] | 18 nM
Cc1cc2nccn2nc1N1CCN(S(=O)(=O)c2cnn3c2OCCC3)CC1 [Compound 437, 3-((4-(7-methylimidazo[1,2-b]pyridazin-6-yl)piperazin-1-yl)sulfonyl)-6,7-dihydro-5H-pyrazolo[5,1-b][1,3]oxazine] | 59 nM
Cc1cc(F)c(F)cc1C1=CCN(S(=O)(=O)c2cnn(C)c2C)CC1 [Compound 404, 4-(4,5-difluoro-2-methylphenyl)-1-((1,5-dimethyl-1H-pyrazol-4-yl)sulfonyl)-1,2,3,6-tetrahydropyridine] | 1540 nM
Cn1ncc(S(=O)(=O)N2CCC(c3cn4ncnc4cc3Cl)CC2)c1C#N [Compound 405, 4-((4-(7-chloro-[1,2,4]triazolo[1,5-a]pyridin-6-yl)piperidin-1-yl)sulfonyl)-1-methyl-1H-pyrazole-5-carbonitrile] | 11 nM
